Results published in US20100222284A1, “COMPOSITION FOR INHIBITING THE ONSET OF ARTERIOSCLEROSIS AND INHIBITION METHOD” (priority 2004, published 2010).

What was measured:
[1] = Basic safety tests (mutagenicity, biodegradability, oral acute toxicity, primary skin irritation, primary eye irritation); settings: biodegradability and three acute toxicity tests performed by a designated organization
Description: In the development of drugs, quasi drugs, foods and the like, the most important and the biggest hurdle is the verification of safety of a rare sugar as a novel substance. A mutagenicity test, a biodegradability test and three types of acute toxicity tests (an oral acute toxicity test, a primary skin irritation test and a primary eye irritation test) are defined as the most basic safety tests. A rare sugar is a monosaccharide that exists in nature even in a small amount, therefore, it can be predicted that it will be safe. However, it is necessary to perform verification precisely. We asked the designated organization to perform the basic safety tests for three types of rare sugars, D-psicose, D-allose and allitol among rare sugars.

CLA-1 promoter = CLA-1 promoter luciferase reporter gene activity in HepG2 cells; type: cell-based, human; settings: HepG2, 24 hours; 2.8-22.4 mM D-glucose or 22.4 mM D-psicose
Description: Further, by integrating a 1200 by promoter region of the CLA-1 gene into a luciferase reporter gene, introducing the gene into a cell and measuring the luciferase activity, the transcriptional activity of CLA-1 was determined.
6. The transcriptional activity of CLA-1 was also examined. The luciferase reporter gene containing the CLA-1 promoter was introduced into HepG2 cells and the resulting HepG2 cells were cultured with 2.8 mM (lane 1), 5.6 mM (lane 2), 11.2 mM (lane 3), 22.4 mM (lane 4) D-glucose or 22.4 mM D-psicose for 24 hours and the luciferase activity was measured. A high concentration of D-glucose inhibited the activity of the CLA-1 promoter.

| Compound | basic safety tests [1] | activity of the CLA-1 promoter (luciferase activity) (CLA-1 promoter) |
| --- | --- | --- |
| O=C[C@H](O)[C@H](O)[C@H](O)[C@H](O)CO [D-allose] | there are not any problems in the safety |  |
| O=C[C@H](O)[C@@H](O)[C@H](O)[C@H](O)CO [D-glucose, reference compound] |  | inhibited |
| O=C(CO)[C@H](O)[C@H](O)[C@H](O)CO [D-psicose] | there are not any problems in the safety | did not affect |
| OC[C@@H](O)[C@@H](O)[C@@H](O)[C@@H](O)CO [allitol] | there are not any problems in the safety |  |
